Consider five compounds from US11707442B2, “Antibacterial and antifungal compounds” (The General Hospital Corporation, priority 2015, dated 2023).

The subject of data set [1] is Salmonella typhimurium strains TA 1535 and TA 1538. Conditions: With S9; 5 μg/plate. The method, then: The Ames test was conducted using histidine auxotroph Salmonella typhimurium strains TA 1535 and TA 1538. To test mutagenic potential of the synthetic retinoids themselves and their metabolic products, the assay was conducted both with and without rat liver S9 fraction (Moltox, Boone, N.C., USA). Briefly, 100 μl of bacterial overnight cultures was added into 500 μl of phosphate buffer containing a range of amounts of the retinoids dissolved in 10 μl DMSO and with or without 4% S9. After incubation at 37° C. for 1 h, the samples were added into 2 ml of soft agar including 0.5 mM of histidine/biotin, mixed, and poured onto minimal glucose agar plates. The plates were incubated at 37° C. for 48 h, and the revertant colonies were counted. 10 μl DMSO was used as a negative control. […] 5 μg/plate 2-aminoanthracene was used as a positive control for both strains in the metabolic activation system. The test was performed in triplicate.

The next data set has as its system C. neoformans. Nature of the data set: MIC against fungal cultures. In kind it is cell-based. Particulars: Cryptococcus neoformans, read-out: Drug MIC. The method, then: (§1) The cells were harvested by centrifugation at 4000 RPM for 5 minutes and washed with PBS; the cell pellets were resuspended in RPMI 1640 medium. The cell count was calculated with a hemocytometer and adjusted to be between 5.0×10^4 to 2.5×10^6 cells/ml. A tested compound was prepared and added to RPMI 1640 medium at 2× the final concentration. […] For C. albicans, OD595 was read after incubating the plate at 35° C. for 24 hrs. For KN99α, OD595 was read after incubating the plate at 35° C. for 70 hrs in accordance with CLSI document M27-A2.

For a further data set, the system named is Candida tropicalis. Kind of data set: MIC against fungal cultures. In kind it is cell-based. The method, then: as §1
In another data set the test system is Candida glabrata. Nature of the data set: MIC against fungal cultures. In kind it is cell-based. Conditions: Nakaseomyces glabratus, read-out: Drug MIC.
Another data set has as its system E. faecium. Nature of the data set: MIC, broth microdilution. Format: cell-based, Enterococcus faecium. Conditions: Enterococcus faecium, read-out: Drug MIC. The text has this: (§2) Bacterial strains and growth conditions and persister isolation: methicillin-resistant S. aureus (MRSA) strain MW2 BAA-1707, vancomycin-resistant S. aureus strain VRS 1, 11 clinical S. aureus isolates, 8 clinical Enterococcus faecium isolates, Klebsiella pneumoniae WGLW2 (BEI Resources, Manassas, Va., USA), Acinetobacter baumannii ATCC 17978, Pseudomonas aeruginosa PA14, and Enterobacter aerogenes ATCC 13048 were used to test antimicrobial activity (See Table 1a). S. aureus and E. faecium strains were grown in tryptic soy broth (TSB) (BD, Franklin Lakes, N.J., USA) or brain-heart infusion (BHI) broth (BD, Franklin Lakes, N.J., USA), respectively at 37° C. at 225 rpm. K. pneumoniae, A. baumannii, P. aeruginosa, and E. aerogenes were grown in Luria Bertani (LB) broth (BD, Franklin Lakes, N.J., USA).
(§3) To test the bacterial MICs for compounds described herein, the total volume in each well was 100 μl of test compounds and bacterial cells in MH broth. […] The bacterial concentration was adjusted to an initial OD600 of 0.03. After incubation at 35° C. for 18 hrs, the absorbance was measured at 595 nm in accordance with CLSI document M07-A8. The MICs of antibiotics were determined by the standard microdilution method recommended by the Clinical and Laboratory Standards Institute.
A general note: Dilution methods test growth across graded concentrations, often in twofold steps.

A further data set concerns S. aureus. Kind of data set: Minimal inhibitory concentration (MIC), broth microdilution. In kind it is cell-based, Staphylococcus aureus.
Text: as §2, §3

Where [2] appears, read: C. neoformans clinical isolate 41291.
Setting [3] is: C. neoformans clinical isolate 41292.
Setting [4] is: C. neoformans clinical isolate 41294.
[5] abbreviates: C. neoformans clinical isolate 41295.
[6] abbreviates: C. neoformans clinical isolate 41296.
Setting [7] is: C. neoformans clinical isolate 41297.
Where [8] appears, read: C. neoformans clinical isolate 41298.
The mark [9] stands for this setting: C. neoformans clinical isolate 41299.
The mark [10] stands for this setting: C. neoformans clinical isolate 41300.
The mark [11] stands for this setting: C. neoformans clinical isolate BF113.
[12] abbreviates: C. neoformans clinical isolate BF114.
[13] abbreviates: ATCC13803, Candida tropicalis ATCC 13803 (Reference), read-out: Drug MIC.
Setting [14] is: Candida tropicalis clinical isolate 11, read-out: Drug MIC.
The mark [15] stands for this setting: Candida tropicalis clinical isolate 85-S, read-out: Drug MIC.
The mark [16] stands for this setting: Candida tropicalis clinical isolate 172-S, read-out: Drug MIC.
Setting [17] is: ATCC90030, Candida glabrata ATCC 90030 (Reference).
[18] abbreviates: Candida glabrata clinical isolate 6891.
Setting [19] is: Candida glabrata clinical isolate 6922.
[20] abbreviates: Candida glabrata clinical isolate 6927.
The mark [21] stands for this setting: Candida glabrata clinical isolate 6930.
The mark [22] stands for this setting: Candida glabrata clinical isolate 6931.
Setting [23] is: Candida glabrata clinical isolate 6932.
[24] abbreviates: Candida glabrata clinical isolate 6943.
Where [25] appears, read: Candida glabrata clinical isolate 7110.
Where [26] appears, read: Candida glabrata clinical isolate 7117.
The mark [27] stands for this setting: Candida glabrata clinical isolate 7221.
The mark [28] stands for this setting: Candida glabrata clinical isolate 7255.
[29] abbreviates: Candida glabrata clinical isolate 7815.
[30] abbreviates: Candida glabrata clinical isolate 7869.
[31] abbreviates: Candida glabrata clinical isolate 7871.
Where [32] appears, read: Candida glabrata clinical isolate 8066.

≈ marks a conversion by molar mass, not a printed value. Where two headings read alike, the source gives them in different places. Bounds are passed on as bounds.

As a reminder, the MIC is the smallest concentration in the dilution series that meets the test's criterion for growth inhibition.

For `Nc1ccc2cc3ccccc3cc2c1` [2AA, 2-Aminoanthracene], in data set [1], the “Number of revertants (T1535)” value worked out at 263 ± 15 and the “Number of revertants (T1538)” value is 2568 ± 108.
Take `C[C@@H]1[C@H](O)[C@@H](C)/C=C/C=C/C=C/C=C/C=C/C=C/C=C/[C@H](O[C@@H]2O[C@H](C)[C@@H](O)[C@H](N)[C@@H]2O)C[C@@H]2O[C@](O)(C[C@@H](O)C[C@@H](O)[C@H](O)CC[C@@H](O)C[C@@H](O)CC(=O)O[C@H]1C)C[C@H](O)[C@H]2C(=O)O` [Amphotericin B]: the minimal inhibitory concentration (MIC) in the data set with C. neoformans (setting [2]), in the data set with C. neoformans (setting [3]), with C. neoformans (setting [4]), in the data set on C. neoformans (setting [5]), in the data set with C. neoformans (setting [6]) and with C. neoformans (setting [7]) was 0.125 mg/L (≈ 0.135 µM) each time. Moreover, the minimum inhibitory concentration (MIC) was 0.125 mg/L (≈ 0.135 µM) in the data set on C. neoformans (setting [8]); 0.125 mg/L (≈ 0.135 µM) in the data set with C. neoformans (setting [9]); 0.125 mg/L (≈ 0.135 µM) in the data set on C. neoformans (setting [10]); 0.125 mg/L (≈ 0.135 µM) in the data set with C. neoformans (setting [11]); less than 0.0625 mg/L in the data set on C. neoformans (setting [12]); 1 mg/L (≈ 1.08 µM) with Candida tropicalis (setting [13]). Moreover, the MIC with Candida tropicalis (setting [14]) was 0.5 mg/L (≈ 0.541 µM); with Candida tropicalis (setting [15]), 0.125 mg/L (≈ 0.135 µM); in the data set with Candida tropicalis (setting [16]), 0.5 mg/L (≈ 0.541 µM); in the data set with Candida glabrata (setting [17]), 1 mg/L (≈ 1.08 µM); in the data set on Candida glabrata (setting [18]) it was 0.5 mg/L (≈ 0.541 µM); in the data set on Candida glabrata (setting [19]), 0.5 mg/L (≈ 0.541 µM). For the same compound, the MIC in the data set with Candida glabrata (setting [20]) is 1 mg/L (≈ 1.08 µM); with Candida glabrata (setting [21]), 1 mg/L (≈ 1.08 µM); in the data set on Candida glabrata (setting [22]) it was 0.5 mg/L (≈ 0.541 µM); in the data set with Candida glabrata (setting [23]), 0.5 mg/L (≈ 0.541 µM); in the data set with Candida glabrata (setting [24]) it was 1 mg/L (≈ 1.08 µM); in the data set with Candida glabrata (setting [25]) it was 0.5 mg/L (≈ 0.541 µM). Besides, the minimal inhibitory concentration (MIC) in the data set on Candida glabrata (setting [26]) came to 0.5 mg/L (≈ 0.541 µM); in the data set with Candida glabrata (setting [27]) it was 0.5 mg/L (≈ 0.541 µM); in the data set on Candida glabrata (setting [28]), 1 mg/L (≈ 1.08 µM); in the data set on Candida glabrata (setting [29]) it was 0.5 mg/L (≈ 0.541 µM); with Candida glabrata (setting [30]), 1 mg/L (≈ 1.08 µM); with Candida glabrata (setting [31]), 1 mg/L (≈ 1.08 µM). In the data set with Candida glabrata (setting [32]), the MIC came to 0.5 mg/L (≈ 0.541 µM).
In the case of `OC(Cn1cncn1)(Cn1cncn1)c1ccc(F)cc1F` [Fluconazole], the MIC with C. neoformans (setting [2]) was 8 mg/L (≈ 26.1 µM); in the data set on C. neoformans (setting [3]), 64 mg/L (≈ 209 µM); in the data set on C. neoformans (setting [4]), 8 mg/L (≈ 26.1 µM); in the data set with C. neoformans (setting [5]), 64 mg/L (≈ 209 µM); in the data set on C. neoformans (setting [6]) it was greater than 64 mg/L; with C. neoformans (setting [7]), 8 mg/L (≈ 26.1 µM). Further, the MIC in the data set with C. neoformans (setting [8]) is 8 mg/L (≈ 26.1 µM); in the data set with C. neoformans (setting [9]), 4 mg/L (≈ 13.1 µM); in the data set on C. neoformans (setting [10]), greater than 64 mg/L; in the data set with C. neoformans (setting [11]) it was 16 mg/L (≈ 52.2 µM); in the data set on C. neoformans (setting [12]) it was 64 mg/L (≈ 209 µM); with Candida tropicalis (setting [13]), 8 mg/L (≈ 26.1 µM). Moreover, the MIC in the data set on Candida tropicalis (setting [14]) is 0.5 mg/L (≈ 1.63 µM); with Candida tropicalis (setting [15]), 1 mg/L (≈ 3.27 µM); in the data set on Candida tropicalis (setting [16]), 2 mg/L (≈ 6.53 µM); with Candida glabrata (setting [17]) it was 8 mg/L (≈ 26.1 µM); in the data set with Candida glabrata (setting [18]), 2 mg/L (≈ 6.53 µM); in the data set on Candida glabrata (setting [19]), 2 mg/L (≈ 6.53 µM). For the same compound, the MIC came to 2 mg/L (≈ 6.53 µM) in the data set with Candida glabrata (setting [20]); 1 mg/L (≈ 3.27 µM) with Candida glabrata (setting [21]); 0.5 mg/L (≈ 1.63 µM) in the data set with Candida glabrata (setting [22]); 0.5 mg/L (≈ 1.63 µM) in the data set on Candida glabrata (setting [23]); 8 mg/L (≈ 26.1 µM) in the data set with Candida glabrata (setting [24]); 1 mg/L (≈ 3.27 µM) in the data set on Candida glabrata (setting [25]). The minimal inhibitory concentration (MIC) in the data set on Candida glabrata (setting [26]) turned out to be 2 mg/L (≈ 6.53 µM); in the data set with Candida glabrata (setting [27]), 1 mg/L (≈ 3.27 µM); in the data set on Candida glabrata (setting [28]) it was 2 mg/L (≈ 6.53 µM); in the data set on Candida glabrata (setting [29]), 2 mg/L (≈ 6.53 µM); in the data set on Candida glabrata (setting [30]), 4 mg/L (≈ 13.1 µM); with Candida glabrata (setting [31]), 2 mg/L (≈ 6.53 µM). Besides, in the data set on Candida glabrata (setting [32]), the MIC was 2 mg/L (≈ 6.53 µM).
Turning to `O=C(N[C@H](CO)[C@H](O)c1ccc([N+](=O)[O-])cc1)C(Cl)Cl` [chloramphenicol], the MIC in the data set on E. faecium (Enterococcus faecium clinical isolate C68 (Table 6)) was 16 mg/L (≈ 49.5 µM); with E. faecium (Enterococcus faecium clinical isolate D14 (Table 6)), 8 mg/L (≈ 24.8 µM); in the data set with E. faecium (Enterococcus faecium clinical isolate D24 (Table 6)), 4 mg/L (≈ 12.4 µM); with E. faecium (Enterococcus faecium clinical isolate D25 (Table 6)) it was 8 mg/L (≈ 24.8 µM); in the data set with E. faecium (Enterococcus faecium clinical isolate D29 (Table 6)) it was 64 mg/L (≈ 198 µM); in the data set with E. faecium (Enterococcus faecium clinical isolate W312 (Table 6)), 8 mg/L (≈ 24.8 µM). The MIC with E. faecium (Enterococcus faecium clinical isolate WC176 (Table 6)) amounted to 16 mg/L (≈ 49.5 µM).
For “Defensin 1: a CAMP (cationic antimicrobial peptide) secreted by the host immune system”, the MIC against S. aureus (S. aureus MW2 mutant SP1-8 (graS)) was found to be 8 mg/L; against S. aureus (S. aureus MW2 mutant SP1-48 (graS, manA)), 8 mg/L; with S. aureus (S. aureus MW2 mutant SP1-74 (graS, manA, MW2474)), 8 mg/L; in the data set with S. aureus (S. aureus MW2 mutant SP1-100 (graS, manA, MW2474)) it was 8 mg/L; in the data set with S. aureus (S. aureus MW2 mutant SP2-13 (yjbH)) it was 16 mg/L; in the data set on S. aureus (S. aureus MW2 mutant SP2-52 (yjbH, dltB)), 8 mg/L. Also, the MIC was found to be 8 mg/L in the data set on S. aureus (S. aureus MW2 mutant SP2-59 (yjbH, dltB, manA)); 8 mg/L against S. aureus (S. aureus MW2 mutant SP2-65 (yjbH, dltB, manA, MW1685)); 8 mg/L in the data set with S. aureus (S. aureus MW2 mutant SP2-100 (yjbH dltB, manA, MW1685)); 16 mg/L with S. aureus (S. aureus MW2 serial passage culture SP1-1 (no mutated gene)); 16 mg/L against S. aureus (S. aureus MW2 serial passage culture SP2-1 (no mutated gene)).
